# From BindingDB's records for patent US10323000 (Merck Patent, 2019)
# Molecular target: T1, P2X purinoceptor 7 (Homo sapiens, UniProt Q99572)
# T1 sequence (Q99572 whole entry): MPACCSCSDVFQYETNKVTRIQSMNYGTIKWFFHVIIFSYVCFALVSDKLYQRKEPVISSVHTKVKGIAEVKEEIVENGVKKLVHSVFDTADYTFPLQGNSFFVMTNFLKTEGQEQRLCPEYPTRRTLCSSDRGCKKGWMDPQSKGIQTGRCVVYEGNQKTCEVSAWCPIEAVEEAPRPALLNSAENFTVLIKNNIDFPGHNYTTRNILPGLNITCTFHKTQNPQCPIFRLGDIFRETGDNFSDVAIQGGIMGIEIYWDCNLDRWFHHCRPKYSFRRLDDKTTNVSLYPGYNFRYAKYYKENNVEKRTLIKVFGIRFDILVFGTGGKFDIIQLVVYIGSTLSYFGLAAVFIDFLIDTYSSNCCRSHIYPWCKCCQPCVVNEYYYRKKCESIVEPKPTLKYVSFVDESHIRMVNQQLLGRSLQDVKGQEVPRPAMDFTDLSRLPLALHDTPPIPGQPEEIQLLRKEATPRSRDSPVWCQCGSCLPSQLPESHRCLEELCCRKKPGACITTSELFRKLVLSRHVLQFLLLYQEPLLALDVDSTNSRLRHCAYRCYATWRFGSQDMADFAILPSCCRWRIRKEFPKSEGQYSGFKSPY
# Experiment: Pore Permeation Assay
# Protocol: Agonist-induced pore formation was determined by measuring cellular uptake of YO PRO fluorescence dye in HEK293 transfected with human P2X7 receptor. A HEK293 cell over expressing human P2X7 was harvested using HQTase reagent to detach the cells from T75 cm flask. The harvested cells are centrifuged @1200 rpm for 5 min at room temperature. The viability of cells was determined by Trypan blue dye and the cells are plated @10,000 cell/well in 50 ul volume in a 384W BD Poly lysine coated plate and incubated overnight at 37 C. […] The plate was centrifuged at 1000 rpm for 5 seconds and incubated at room temperature for 30 minutes. The uptake of YO PRO dye into the cells was measured using Envision Fluorescence plate reader instrument (Perkin Elmer).
structure (smiles),measurement,value
"CCN(C)C(=O)Cn1cc(C(=O)NCC2CCC(F)(F)CC2)c2c(Cl)cccc21 [US10323000, Compound 163]",IC50,< 10 nM
